Results taken from patent US20230255906A1, “Targeting Serpin B9 in Cancer” (The Brigham and Women`s Hospital, Inc., priority 2020, published 2023).

Experiments:
[1] = tested on: B16-Sb9 KO melanoma cells; assay: Apoptosis by flow cytometry (Annexin-V, viability dye) in Sb9 knockout cells; type: cell-based, mouse; details: 50 μM, 100 μM, and 200 μM
Experimental: FIG. 5M. […] Cells treated with PBS alone were used as a negative control. Data are expressed as means±SD from three independent experiments.
To evaluate the off-target effects of the compound of Formula (III) to Sb9 proteins, the B16-Sb9 KO melanoma cells were treated with various concentrations of the compound of Formula (III). […] Furthermore, the antitumor effects of the compound of Formula (III) on the Sb9 KO mice bearing B16-Sb9 KO tumors, as compared to control group were not observed (FIG. 5N).

LAMP1 = LAMP1 / lysosome fluorescence micrographs; type: cell-based
Excerpt: FIG. 4H. […] DAPI was used to counterstain the cell nuclei. Scale bar: 10 μm.
Lysosomes have a pH of 4 and are the most acidic compartment within cells. Therefore, it was hypothesized that lysosomes contain an environment that is conducive for the binding between the compound of Formula (III) and Sb9. Both Sb9 and GrB were co-localized in the lysosomes of B16 melanoma cells (FIG. 4F).

MBP = MBP (Escherichia coli, UniProt P0AEX9); assay: SPR negative control channel; type: binding
Experimental: FIG. 4B. Sensorgrams of compounds 3,4-dihydroxybenzoic acid (top), 3-oxo-1-indancarboxylic acid (middle), and the compound of Formula (III) (bottom) show the binding of 3,4-dihydroxybenzoic acid and the compound of Formula (III) to Sb9 (top), but not to MBP (bottom) by Surface Plasmon Resonance (SPR).
All assays were run at 25° C. on a BiOptix 404pi. An NTA biosensor chip was used in this study to pre-concentrate 3 μM MBP-Sb9 via an N-terminal His-tag. MBP-Sb9 was covalently immobilized with EDC/NHS in 20 mM HEPES pH 8.0, 150 mM NaCl, 0.05% Tween-20, 5 mM β-ME to 10,000 to 15,000 RUs. MBP was similarly immobilized on a separate channel as a negative control.

B16 melanoma cells = assay: Caspase-3 activity assay (EnzChek Caspase-3 Assay Kit), caspase-3 induction in tumor cells; type: cell-based, mouse; details: 200 μM
How it was run: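 B16 melanoma cells exposed to compounds for 24 h, lysed on ice 30 min, and lysate incubated with Z-DEVD-R110 substrate about 30 min at room temperature. Fluorescence read at ~496/520 nm against untreated-cell and no-enzyme controls; caspase-3 induction serves as surrogate for GrB activity from Sb9 inhibition.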

## O=C(O)c1ccc2ncoc2c1 [Formula (III), 1,3-benzoxazole-6-carboxylic acid]
[1]
  additional apoptosis in Sb9 knockout cells (off-target): No additional apoptotic effect
LAMP1
  LAMP1 expression and lysosome areas: significantly increased the LAMP1 expressions
MBP
  binding to MBP (negative control): not to MBP
B16 melanoma cells; 24 h
  increase in caspase-3 activity compared to 3,4-dihydroxybenzoic acid: ~4 fold
B16 melanoma cells; GrB inhibitor (368050) 10 μM
  GrB-mediated apoptosis (caspase-3 activity): induced GrB-mediated apoptosis
